Experimental data from US10253039B2, “Inhibitors of bacterial DNA gyrase with efficacy against gram-negative bacteria” (priority 2014, dated 2019).
Converted amounts (≈) assume the structure as drawn. Where two headings read alike, the source gives them in different places.

Experiments:
[1] = test system: E. coli BW25113 ΔtolC; test: MIC, microdilution in 96-well plates; conditions: Escherichia coli, BW25113, E. coli BW25113 ΔtolC (parent strain)
[2] = test system: E. coli BW25113 ΔtolC gyrR isolate GyrA Pro35Thr; test: MIC against gyramide-resistant mutant; conditions: Escherichia coli, BW25113
[3] = test system: E. coli BW25113 ΔtolC gyrR isolate GyrA Ser97Pro; test: MIC against gyramide-resistant mutant; conditions: Escherichia coli, BW25113
[4] = test system: E. coli BW25113 ΔtolC gyrR isolate GyrA Phe96Leu; test: MIC against gyramide-resistant mutant; conditions: Escherichia coli, BW25113
[5] = test system: E. coli BW25113 ΔtolC gyrR isolate GyrA His45Tyr; test: MIC against gyramide-resistant mutant; conditions: Escherichia coli, BW25113
[6] = test system: E. coli BW25113 ΔtolC gyrR isolate GyrB Thr508Met; test: MIC against gyramide-resistant mutant; conditions: Escherichia coli, BW25113
[7] = test system: E. coli BW25113 ΔtolC cipR isolate GyrA Ser83Leu; test: MIC against ciprofloxacin-resistant mutant; conditions: Escherichia coli, BW25113
[8] = test system: E. coli BW25113 ΔtolC cipR isolate GyrA Asp87Gly; test: MIC against ciprofloxacin-resistant mutant; conditions: Escherichia coli, BW25113
[9] = test system: E. coli BW25113 ΔtolC cipR isolate GyrA Asp87Tyr; test: MIC against ciprofloxacin-resistant mutant; conditions: Escherichia coli, BW25113
[10] = test system: E. coli BW25113 ΔtolC cipR isolate GyrB Ser464Phe; test: MIC against ciprofloxacin-resistant mutant; conditions: Escherichia coli, BW25113
[11] = test system: Acinetobacter baumannii; test: MIC, microdilution in 96-well plates; type: cell-based
Procedure, shortened: (§1)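 CLSI microdilution, LB, 1:10000 inoculum of actively growing culture; 2-fold dilution series in triplicate, DMSO control lane; 37° C., shaking, 16-18 h; endpoint = no visible growth.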

[12] = test system: E. coli BW25113; test: MIC, microdilution in 96-well plates; type: cell-based; conditions: Escherichia coli, read-out: MIC
Procedure, shortened: as §1

[13] = test system: Edwardsiella tarda; test: MIC, microdilution in 96-well plates; type: cell-based
Procedure, shortened: as §1

[14] = test system: Enterobacter aerogenes; test: MIC, microdilution in 96-well plates; type: cell-based; conditions: Klebsiella aerogenes
Procedure, shortened: as §1

[15] = test system: Pseudomonas aeruginosa; test: MIC, microdilution in 96-well plates; type: cell-based
Procedure, shortened: as §1

[16] = test system: E. coli JW5503 (deltolC); test: MIC, 20-strain panel; type: cell-based; conditions: Escherichia coli
Procedure, shortened: as §1

[17] = test system: E. coli MG1655; test: MIC, 20-strain panel; type: cell-based; conditions: Escherichia coli, read-out: MIC
Procedure, shortened: as §1

[18] = test system: Klebsiella pneumoniae subsp. pneumoniae; test: MIC, 20-strain panel; type: cell-based
Procedure, shortened: as §1

[19] = test system: Morganella morganii subsp. morganii; test: MIC, 20-strain panel; type: cell-based
Procedure, shortened: as §1

[20] = test system: Salmonella enterica subsp. enterica typhimurium; test: MIC, 20-strain panel; type: cell-based
Procedure, shortened: as §1

[21] = test system: Shigella flexneri; test: MIC, 20-strain panel; type: cell-based
Procedure, shortened: as §1

[22] = test system: Staphylococcus aureus subsp. aureus; test: MIC, 20-strain panel; type: cell-based; conditions: read-out: MIC
Procedure, shortened: as §1

[23] = test system: Staphylococcus epidermidis; test: MIC, 20-strain panel; type: cell-based
Procedure, shortened: as §1

[24] = test system: Staphylococcus saprophyticus subsp. saprophyticus; test: MIC, 20-strain panel; type: cell-based
Procedure, shortened: as §1

[25] = test system: Streptococcus agalactiae; test: MIC, 20-strain panel; type: cell-based
Procedure, shortened: as §1

[26] = test system: Streptococcus pyogenes; test: MIC, 20-strain panel; type: cell-based
Procedure, shortened: as §1

[27] = test system: Bacillus cereus; test: MIC, 20-strain panel; type: cell-based; conditions: Table 7, separate set of experiments, read-out: MIC
Procedure, shortened: as §1

[28] = test system: Bacillus subtilis 168; test: MIC, 20-strain panel; type: cell-based; conditions: Table 7, separate set of experiments, read-out: MIC
Procedure, shortened: as §1

[29] = test system: Enterococcus faecalis; test: MIC, 20-strain panel; type: cell-based; conditions: Table 7, separate set of experiments
Procedure, shortened: as §1

[30] = test system: Enterococcus faecium; test: MIC, 20-strain panel; type: cell-based; conditions: Table 7, separate set of experiments, read-out: MIC
Procedure, shortened: as §1

[31] = BW25113, E. coli BW25113, Table 7, separate set of experiments
[32] = Table 7, separate set of experiments
[33] = E. coli JW5503 (deltolC), Table 7, separate set of experiments
[34] = MG1655, E. coli MG1655, Table 7, separate set of experiments
[35] = E: Klebsiella pneumoniae subsp. pneumoniae
[36] = Klebsiella pneumoniae subsp. pneumoniae, Table 7, separate set of experiments
[37] = F: Salmonella enterica subsp. enterica Typhimurium
[38] = Salmonella enterica subsp. enterica typhimurium, Table 7, separate set of experiments
[39] = H: Staphylococcus aureus subsp. aureus
[40] = Table 7, separate set of experiments, read-out: MIC

CO[C@@H]1[C@@H](OC(N)=O)[C@@H](O)[C@H](Oc2ccc3c(O)c(NC(=O)c4ccc(O)c(CC=C(C)C)c4)c(=O)oc3c2C)OC1(C)C [Novobiocin, novobiocin]
MIC ([1]; Table 4): 1.25 µM (≈ 0.766 µg/mL)
MIC [2]: 1.25 µM (≈ 0.766 µg/mL)
MIC [3]: 1.25 µM (≈ 0.766 µg/mL)
MIC [4]: 1.25 µM (≈ 0.766 µg/mL)
MIC [5]: 1.25 µM (≈ 0.766 µg/mL)
MIC [6]: 1.25 µM (≈ 0.766 µg/mL)

O=C(O)c1cn(C2CC2)c2cc(N3CCNCC3)c(F)cc2c1=O [Ciprofloxacin, ciprofloxacin]
MIC ([1]; Table 4): 0.005 µM (≈ 0.00166 µg/mL)
MIC ([1]; Table 5): 0.00625 µM (≈ 0.00207 µg/mL)
MIC [2]: 0.005 µM (≈ 0.00166 µg/mL)
MIC [3]: 0.005 µM (≈ 0.00166 µg/mL)
MIC [4]: 0.01 µM (≈ 0.00331 µg/mL)
MIC [5]: 0.01 µM (≈ 0.00331 µg/mL)
MIC [6]: 0.01 µM (≈ 0.00331 µg/mL)
MIC [7]: 0.2 µM (≈ 0.0663 µg/mL)
MIC [8]: 0.05 µM (≈ 0.0166 µg/mL)
MIC [9]: 0.1 µM (≈ 0.0331 µg/mL)
MIC [10]: 0.05 µM (≈ 0.0166 µg/mL)

O=S(=O)(N[C@@H]1CCN(Cc2ccc(OC3CC3)cc2)C1)c1cccc(C(F)(F)F)c1 [Compound 156]
MIC [11]: > 16 µg/mL
MIC ([12]; BW25113, B: E. coli BW25113): ~8 µg/mL (≈ 18.2 µM)
MIC [12, 31]: 16 µg/mL (≈ 36.3 µM)
MIC ([13]; D: Edwardsiella tarda): ~8 µg/mL (≈ 18.2 µM)
MIC [13, 32]: 16 µg/mL (≈ 36.3 µM)
MIC [14]: > 16 µg/mL
MIC [15]: > 16 µg/mL
MIC ([16]; C: E. coli JW5503 (deltolC)): 0.125 µg/mL (≈ 0.284 µM)
MIC [16, 33]: 0.125 µg/mL (≈ 0.284 µM)
MIC ([17]; MG1655, A: E. coli MG1655): ~8 µg/mL (≈ 18.2 µM)
MIC [17, 34]: 16 µg/mL (≈ 36.3 µM)
MIC [18, 35]: > 8 µg/mL
MIC [18, 36]: > 16 µg/mL
MIC ([19]; Morganella morganii): > 16 µg/mL
MIC [20, 37]: 4 µg/mL (≈ 9.08 µM)
MIC [20, 38]: 4 µg/mL (≈ 9.08 µM)
MIC ([21]; G: Shigella flexneri): 8 µg/mL (≈ 18.2 µM)
MIC [21, 32]: 8 µg/mL (≈ 18.2 µM)
MIC [22, 39]: > 8 µg/mL
MIC [23]: > 8 µg/mL
MIC [24]: > 8 µg/mL
MIC [25]: > 8 µg/mL
MIC [26]: > 8 µg/mL

Cc1ccc(C#N)cc1S(=O)(=O)N[C@@H]1CCN(Cc2ccc(-c3ccccc3)cc2)C1 [Compound 143]
MIC [11, 40]: > 16 µg/mL
MIC ([12]; BW25113, B: E. coli BW25113): ~8 µg/mL (≈ 18.5 µM)
MIC [12, 31]: 8 µg/mL (≈ 18.5 µM)
MIC ([13]; D: Edwardsiella tarda, read-out: MIC): ~8 µg/mL (≈ 18.5 µM)
MIC [13, 40]: 8 µg/mL (≈ 18.5 µM)
MIC ([14]; Enterobacter aerogenes, Table 7, separate set of experiments, read-out: MIC): > 16 µg/mL
MIC [15, 40]: > 16 µg/mL
MIC [27]: > 16 µg/mL
MIC [28]: > 16 µg/mL
MIC ([16]; C: E. coli JW5503 (deltolC)): < 0.0625 µg/mL
MIC [16, 33]: < 0.0078 µg/mL
MIC ([17]; MG1655, A: E. coli MG1655): 8 µg/mL (≈ 18.5 µM)
MIC [17, 34]: 16 µg/mL (≈ 37.1 µM)
MIC [29]: > 16 µg/mL
MIC [30]: > 16 µg/mL
MIC ([18]; E: Klebsiella pneumoniae subsp. pneumoniae, read-out: MIC): > 8 µg/mL
MIC ([18]; Klebsiella pneumoniae subsp. pneumoniae, Table 7, separate set of experiments, read-out: MIC): > 16 µg/mL
MIC ([19]; Morganella morganii subsp. morganii, Table 7, separate set of experiments, read-out: MIC): > 16 µg/mL
MIC [20, 37]: 1 µg/mL (≈ 2.32 µM)
MIC [20, 38]: 2 µg/mL (≈ 4.63 µM)
MIC ([21]; G: Shigella flexneri): 4 µg/mL (≈ 9.27 µM)
MIC [21, 32]: 4 µg/mL (≈ 9.27 µM)
MIC [22, 39]: > 8 µg/mL
MIC ([22]; Staphylococcus aureus subsp. aureus, Table 7, separate set of experiments): > 16 µg/mL
MIC ([23]; J: Staphylococcus epidermidis, read-out: MIC): ~8 µg/mL (≈ 18.5 µM)
MIC [23, 40]: > 16 µg/mL
MIC ([24]; I: Staphylococcus saprophyticus subsp. saprophyticus, read-out: MIC): > 8 µg/mL
MIC ([24]; Staphylococcus saprophyticus subsp. saprophyticus, Table 7, separate set of experiments, read-out: MIC): > 16 µg/mL
MIC ([25]; K: Streptococcus agalactiae, read-out: MIC): > 8 µg/mL
MIC [25, 40]: > 16 µg/mL
MIC ([26]; L: Streptococcus pyogenes, read-out: MIC): > 8 µg/mL
MIC [26, 40]: > 16 µg/mL

N#Cc1ccc(Cl)c(S(=O)(=O)N[C@@H]2CCN(Cc3ccc(OC4CC4)cc3)C2)c1 [Compound 77]
MIC [11]: > 16 µg/mL
MIC ([12]; BW25113, B: E. coli BW25113): 8 µg/mL (≈ 18.5 µM)
MIC [12, 31]: 8 µg/mL (≈ 18.5 µM)
MIC ([13]; D: Edwardsiella tarda): 8 µg/mL (≈ 18.5 µM)
MIC [13, 32]: 16 µg/mL (≈ 37 µM)
MIC [14]: > 16 µg/mL
MIC [15]: > 16 µg/mL
MIC ([16]; C: E. coli JW5503 (deltolC)): 0.125 µg/mL (≈ 0.289 µM)
MIC [16, 33]: 0.125 µg/mL (≈ 0.289 µM)
MIC ([17]; MG1655, A: E. coli MG1655): 8 µg/mL (≈ 18.5 µM)
MIC [17, 34]: 16 µg/mL (≈ 37 µM)
MIC [18, 35]: ~8 µg/mL (≈ 18.5 µM)
MIC [18, 36]: > 16 µg/mL
MIC ([19]; Morganella morganii): > 16 µg/mL
MIC [20, 37]: 1 µg/mL (≈ 2.32 µM)
MIC [20, 38]: 2 µg/mL (≈ 4.63 µM)
MIC ([21]; G: Shigella flexneri): 4 µg/mL (≈ 9.26 µM)
MIC [21, 32]: 4 µg/mL (≈ 9.26 µM)
MIC [22, 39]: > 8 µg/mL
MIC [23]: > 8 µg/mL
MIC [24]: > 8 µg/mL
MIC [25]: > 8 µg/mL
MIC [26]: > 8 µg/mL
